Data set [1] is described as follows: Toxicity in chicken embryo chorioallantoic membrane assessed as irritation score at 1.55 mM measured after 5 mins by microscopic analysis relative to Latanoprost. The class given is tissue-based, Gallus gallus. Particulars: in vivo, 1550 µM.
The target in data set [2] is Rho-associated protein kinase 1 (Homo sapiens, UniProt Q13464). The data set can be described thus: Inhibition of ROCK1 (unknown origin) incubated for 10 mins in presence of ATP by mobility shift assay.
Sequence of Rho-associated protein kinase 1 (Q13464 whole entry): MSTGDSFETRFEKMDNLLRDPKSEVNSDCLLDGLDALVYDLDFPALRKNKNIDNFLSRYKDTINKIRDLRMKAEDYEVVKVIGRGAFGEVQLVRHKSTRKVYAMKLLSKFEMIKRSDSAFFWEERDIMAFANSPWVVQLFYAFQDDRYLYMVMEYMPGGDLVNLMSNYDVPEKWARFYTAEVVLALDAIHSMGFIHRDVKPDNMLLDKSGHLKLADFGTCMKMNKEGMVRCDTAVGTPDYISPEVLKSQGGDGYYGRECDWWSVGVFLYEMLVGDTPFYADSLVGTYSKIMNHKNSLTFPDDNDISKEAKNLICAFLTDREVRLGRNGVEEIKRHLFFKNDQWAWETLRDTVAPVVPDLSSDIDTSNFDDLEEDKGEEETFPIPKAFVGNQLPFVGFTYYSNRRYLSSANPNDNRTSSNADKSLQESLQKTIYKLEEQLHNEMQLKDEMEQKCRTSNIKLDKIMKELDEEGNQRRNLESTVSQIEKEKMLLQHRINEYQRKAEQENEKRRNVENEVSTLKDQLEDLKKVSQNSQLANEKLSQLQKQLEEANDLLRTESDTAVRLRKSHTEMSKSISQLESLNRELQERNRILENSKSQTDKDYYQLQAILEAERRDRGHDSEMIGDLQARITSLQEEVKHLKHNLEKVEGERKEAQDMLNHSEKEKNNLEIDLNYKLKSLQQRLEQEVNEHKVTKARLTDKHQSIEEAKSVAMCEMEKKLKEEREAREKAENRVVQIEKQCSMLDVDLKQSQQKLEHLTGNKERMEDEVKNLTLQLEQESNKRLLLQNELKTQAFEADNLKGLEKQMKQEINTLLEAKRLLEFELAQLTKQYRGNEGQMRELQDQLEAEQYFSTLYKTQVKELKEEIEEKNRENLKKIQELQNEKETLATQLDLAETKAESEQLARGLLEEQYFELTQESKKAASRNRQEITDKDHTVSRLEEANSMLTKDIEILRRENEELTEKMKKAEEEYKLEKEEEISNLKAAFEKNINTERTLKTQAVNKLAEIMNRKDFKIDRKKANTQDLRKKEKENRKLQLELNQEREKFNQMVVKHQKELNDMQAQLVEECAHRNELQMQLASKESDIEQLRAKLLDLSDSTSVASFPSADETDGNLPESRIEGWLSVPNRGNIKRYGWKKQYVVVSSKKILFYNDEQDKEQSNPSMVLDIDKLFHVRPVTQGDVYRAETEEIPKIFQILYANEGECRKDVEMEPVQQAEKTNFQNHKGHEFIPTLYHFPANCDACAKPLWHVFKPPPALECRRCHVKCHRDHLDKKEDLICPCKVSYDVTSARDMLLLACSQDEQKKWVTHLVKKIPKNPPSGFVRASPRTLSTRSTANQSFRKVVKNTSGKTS
Data set [3] concerns the target Rho-associated protein kinase 2 (Homo sapiens, UniProt O75116). The data set can be described thus: Inhibition of ROCK2 (unknown origin) incubated for 60 mins in presence of ATP by mobility shift assay.
Data set [4] deals with Oryctolagus cuniculus. The data set can be described thus: Anti-glaucoma activity in methylcellulose-induced acute intraocular hypertensive New Zealand rabbit model assessed as reduction in intraocular pressure at 1.55 mM,TOP administration on conjunctival sac measured for 1 to 4 hrs. In kind it is functional, organism-based. The note with it: time 1-4 hrs.
Data set [5] deals with Oryctolagus cuniculus. The data set can be described thus: Anti-glaucoma activity in methylcellulose-induced acute intraocular hypertensive New Zealand rabbit model assessed as reduction in intraocular pressure at 1.55 mM,TOP administration on conjunctival sac measured for 5 to 7 hrs. In kind it is functional, organism-based. The note with it: time 5-7 hrs.
Data set [6] can be described thus: Toxicity in chicken embryo chorioallantoic membrane assessed as irritation score at 1.55 mM measured after 5 mins by microscopic analysis relative to Netarsudil. In kind it is tissue-based, Gallus gallus. Particulars: in vivo, 1550 µM.
The subject of data set [7] is Oryctolagus cuniculus. The data set can be described thus: Anti-glaucoma activity in methylcellulose-induced acute intraocular hypertensive New Zealand rabbit model assessed as reduction in intraocular pressure at 1.55 mM,TOP administration on conjunctival sac measured upto 24 hrs relative to Netarsudil. In kind it is functional, organism-based.
Data set [8] in a line: Toxicity in chicken embryo chorioallantoic membrane assessed as irritation score at 1.55 mM measured after 5 mins in presence of methyl 3-(nitrooxy)benzoate by microscopic analysis. The note with it: in vivo, 1550 µM. The class given is tissue-based, Gallus gallus.
Data set [9] can be described thus: Toxicity in New Zealand rabbit assessed as appearance of conjunctival congestion by measuring ocular irritation score at 0.028 % TOP administration on left eye measured after 3 days by draize eye irritation test. The class given is tissue-based, Oryctolagus cuniculus. Particulars: in vivo, topical_or_ocular, 72 h, time 3 day.
Data set [10] can be described thus: Toxicity in New Zealand rabbit assessed as appearance of conjunctival congestion by measuring ocular irritation score at 0.028 % TOP administration on left eye measured after 1 day by draize eye irritation test. The class given is tissue-based, Oryctolagus cuniculus. Particulars: in vivo, topical_or_ocular, 24 h.
The nature of data set [11]: Toxicity in New Zealand rabbit assessed as appearance of conjunctival congestion by measuring ocular irritation score at 0.028 % TOP administration on left eye measured after 2 days by draize eye irritation test. The class given is tissue-based, Oryctolagus cuniculus. The note with it: in vivo, topical_or_ocular, 48 h, time 2 day.
Data set [12] has as its system Mus musculus. The data set can be described thus: Anti-glaucoma activity in magnetic microbead induced occlusion C57BL/6J mouse model assessed as increase in retinal ganglion cell population at 441.27 uM,TOP administrated on right eye thrice a day for 21 days by immunofluorescence based confocal microscopic analysis. The class given is functional, organism-based. Particulars: time 21.0 day.

The nature of data set [13]: Toxicity in New Zealand rabbit assessed as appearance of conjunctival congestion by measuring ocular irritation score at 0.028 % TOP administration on left eye measured after 5 days by draize eye irritation test. In kind it is tissue-based, Oryctolagus cuniculus. Particulars: in vivo, topical_or_ocular, 120 h, time 5 day.
A short description of data set [14]: Toxicity in New Zealand rabbit assessed as appearance of conjunctival congestion by measuring incidence of ocular irritation at 0.028 % TOP administration on left eye measured for 5 days by draize eye irritation test. The class given is tissue-based, Oryctolagus cuniculus. The note with it: in vivo, topical_or_ocular, 120 h, time 5 day.
For data set [15], the system named is Mus musculus. The data set can be described thus: Anti-glaucoma activity in magnetic microbead induced occlusion C57BL/6J mouse model assessed as reduction in intraocular pressure at 441.27 uM,TOP administration on right eye measured after 1 hr by tonometric analysis. The class given is functional, organism-based.
Data set [16] in a line: Toxicity in New Zealand rabbit assessed as appearance of conjunctival congestion by measuring ocular irritation score at 0.028 % TOP administration on left eye measured after 4 days by draize eye irritation test. The class given is tissue-based, Oryctolagus cuniculus. The note with it: in vivo, topical_or_ocular, 96 h, time 4 day.
Data set [17] can be described thus: Toxicity in New Zealand rabbit assessed as appearance of conjunctival congestion by measuring ocular irritation score at 0.028 % TOP administration on left eye measured after 6 days by draize eye irritation test. In kind it is tissue-based, Oryctolagus cuniculus. The note with it: in vivo, topical_or_ocular, 144 h, time 6 day.
The nature of data set [18]: Toxicity in New Zealand rabbit assessed as appearance of conjunctival congestion by measuring ocular irritation score at 0.028 % TOP administration on left eye measured after 7 days by draize eye irritation test. The class given is tissue-based, Oryctolagus cuniculus. Particulars: in vivo, topical_or_ocular, 168 h, time 7 day.

Calls of active or inactive are those of the source. The rule behind the calls is not given here.

Sequence of Rho-associated protein kinase 2 (O75116 whole entry): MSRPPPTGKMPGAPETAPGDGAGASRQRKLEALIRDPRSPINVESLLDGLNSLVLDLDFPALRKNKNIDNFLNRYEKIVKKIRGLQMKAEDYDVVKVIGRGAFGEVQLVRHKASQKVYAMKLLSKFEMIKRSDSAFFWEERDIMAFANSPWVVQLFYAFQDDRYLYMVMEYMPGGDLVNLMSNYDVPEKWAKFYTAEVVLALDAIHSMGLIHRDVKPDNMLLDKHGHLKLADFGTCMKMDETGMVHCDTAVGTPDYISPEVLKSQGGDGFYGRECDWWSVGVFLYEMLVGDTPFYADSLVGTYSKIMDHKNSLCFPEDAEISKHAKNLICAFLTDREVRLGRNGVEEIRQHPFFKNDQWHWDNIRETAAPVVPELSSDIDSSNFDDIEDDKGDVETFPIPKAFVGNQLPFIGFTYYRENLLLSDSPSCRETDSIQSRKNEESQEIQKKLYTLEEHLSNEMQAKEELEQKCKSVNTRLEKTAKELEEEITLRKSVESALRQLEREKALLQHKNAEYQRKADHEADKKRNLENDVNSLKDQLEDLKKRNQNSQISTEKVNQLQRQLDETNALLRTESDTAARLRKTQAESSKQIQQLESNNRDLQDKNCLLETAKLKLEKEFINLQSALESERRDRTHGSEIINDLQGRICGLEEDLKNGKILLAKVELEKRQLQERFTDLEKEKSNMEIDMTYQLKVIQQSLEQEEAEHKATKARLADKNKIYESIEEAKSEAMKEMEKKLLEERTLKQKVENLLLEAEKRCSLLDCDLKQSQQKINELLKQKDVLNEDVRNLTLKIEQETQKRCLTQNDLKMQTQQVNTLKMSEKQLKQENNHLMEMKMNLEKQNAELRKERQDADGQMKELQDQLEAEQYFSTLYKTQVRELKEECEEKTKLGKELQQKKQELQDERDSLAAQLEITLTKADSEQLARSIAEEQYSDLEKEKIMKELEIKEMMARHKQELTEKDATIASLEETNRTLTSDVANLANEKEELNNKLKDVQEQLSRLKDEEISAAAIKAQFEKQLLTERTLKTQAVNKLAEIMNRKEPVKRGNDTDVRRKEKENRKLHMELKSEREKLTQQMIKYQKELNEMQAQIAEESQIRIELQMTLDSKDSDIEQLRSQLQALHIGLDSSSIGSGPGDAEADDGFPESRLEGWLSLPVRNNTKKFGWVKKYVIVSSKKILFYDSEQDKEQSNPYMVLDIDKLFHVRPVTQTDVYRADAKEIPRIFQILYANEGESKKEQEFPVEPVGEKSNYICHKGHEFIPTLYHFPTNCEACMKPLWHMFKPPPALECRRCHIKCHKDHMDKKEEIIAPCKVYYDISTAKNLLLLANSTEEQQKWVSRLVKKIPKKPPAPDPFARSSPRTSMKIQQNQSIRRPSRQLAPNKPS

`O=C(CCC/C=C\C[C@@H]1[C@@H](CC[C@@H](O)CCc2ccccc2)[C@H](O)C[C@@H]1O)OCCCCO[N+](=O)[O-]` [LATANOPROSTENE BUNOD]: the Activity entry in data set [1] is recorded as “Toxic”.
By IC50 is commonly meant the concentration that gives 50% inhibition. Turning to `NCC(C(=O)Nc1ccc2cnccc2c1)c1ccc(COC(=O)CCCCO[N+](=O)[O-])cc1` (centres undefined), the IC50 in data set [2] amounted to 29 nM; in [3] it was 5.15 nM.
Regarding `NC[C@H](C(=O)Nc1ccc2cnccc2c1)c1ccc(COC(=O)c2cccc(CO[N+](=O)[O-])c2)cc1`, the IC50 was determined as 35.4 nM in [2] and 25.3 nM in data set [3].
Regarding `CS(=O)(=O)O.CS(=O)(=O)O.NCC(C(=O)Nc1ccc2cnccc2c1)c1ccc(COC(=O)c2cccc(CO[N+](=O)[O-])c2)cc1` (centres undefined), the result with Oryctolagus cuniculus [4] and in the data set on Oryctolagus cuniculus [5] was Active. The figures for the IC50 in [2] and in data set [3] were 2.54 nM and 1.48 nM, respectively. Besides, in data set [6], the Activity result is on record as “Toxic”.
For the compound `CS(=O)(=O)O.CS(=O)(=O)O.NCC(C(=O)Nc1ccc2cnccc2c1)c1ccc(COC(=O)CCCO[N+](=O)[O-])cc1` (centres undefined), the IC50 in data set [2] was determined as 4.94 nM; in data set [3], 2.51 nM. Also, the outcome in the data set on Oryctolagus cuniculus [7] was Active. Also, the Activity result in data set [6] is “Toxic”.
In the case of `CS(=O)(=O)O.CS(=O)(=O)O.NCC(C(=O)Nc1ccc2cnccc2c1)c1ccc(COC(=O)c2ccc(CO[N+](=O)[O-])cc2)cc1` (centres undefined), the result with Oryctolagus cuniculus [4] was Active. Also, the 50% inhibitory concentration (IC50) in [2] was determined as 1.48 nM; in data set [3], 0.83 nM. In addition, the Activity entry in [6] is “Toxic”.
With `C[C@H]1CNCCCN1S(=O)(=O)c1cccc2cncc(F)c12`, in data set [3], the IC50 amounted to 13.1 nM.
Take `Cc1ccc(C(=O)OCc2ccc([C@@H](CN)C(=O)Nc3ccc4cnccc4c3)cc2)c(C)c1`: the Activity entry in [8] was “Non-Toxic”; in data set [9] it was 3; in [10], 3.33; in data set [11], 3.67; in data set [13], 2.33; in data set [14] it was 100%. Also, the Activity worked out at 3.67 in [16], 1.33 in data set [17] and 1 in data set [18]. Also, the outcome in the data set with Mus musculus [12] and with Mus musculus [15] was Active.
`NCC(C(=O)Nc1ccc2cnccc2c1)c1ccc(COC(=O)CCCCCO[N+](=O)[O-])cc1` (centres undefined): the figures for the IC50 in data set [2] and in [3] were 22.5 nM and 5.27 nM, respectively.
On the same counts, the results for `NCC(C(=O)Nc1ccc2cnccc2c1)c1ccc(COC(=O)CCC(=O)O[C@@H]2CO[C@@H]3[C@H]2OC[C@@H]3O[N+](=O)[O-])cc1` (some centres undefined) are 28.6 nM and 8.56 nM.

(Values after ChEMBL document CHEMBL5614405 (J Med Chem, 2024).)
